The values below are quoted from earlier work in US20240173272A1 (LUPIN ATLANTIS HOLDINGS SA, priority 2021, published 2024).

The conditions of data set [1]: weak base.
For data set [2] the following is noted: oral administration.

For the molecule `Cc1cccc(C)c1OCC(C)N` (centres unmarked) [Mexiletine], the pKa result in data set [1] is given as “about 9.1”. The bioavailability entry in data set [2] is given as “about 90%”.
